Here are results for 24 molecules from ChEMBL document CHEMBL5244255, “An insight on medicinal attributes of 1,2,4-triazoles” (Eur J Med Chem, 2020).

The target of one assay is DNA topoisomerase II (Homo sapiens, UniProt P11388+Q02880). Kind of assay: Inhibition of human Topoisomerase 2 incubated for 30 mins by ELISA assay. In kind it is protein assay.
The species entered for assay [1] is Rattus norvegicus. Kind of assay: Bronchodilator activity in Sprague-Dawley rat. It counts as functional, organism-based.
Assay [2] has as its system Staphylococcus aureus. The assay can be described thus: Antibacterial activity against Methicillin-resistant Staphylococcus aureus assessed as bacterial growth inhibition incubated for 24 hrs. In kind it is functional.
The subject of assay [3] is Staphylococcus aureus. Kind of assay: Antibacterial activity against Staphylococcus aureus 6538 assessed as bacterial growth inhibition incubated for 24 hrs. It counts as functional.
In another assay the target is DNA gyrase (Escherichia coli, UniProt P0AES4+P0AES6). The assay can be described thus: Inhibition of Escherichia coli DNA gyrase supercoiling activity by Microplate Assay kit method. In kind it is protein-complex assay.
Assay [4] relates to Trypanosoma cruzi. The assay can be described thus: Trypanocidal activity against amastigote stage of Trypanosoma cruzi. In kind it is functional, organism-based.
For assay [5], the system named is Trypanosoma cruzi. Kind of assay: Trypanocidal activity against epimastigote stage of Trypanosoma cruzi. In kind it is functional, organism-based.
Assay [6] has as its system Plasmodium falciparum. The assay can be described thus: microbe, parasite or virus in culture.
Assay [7] has as its system Plasmodium falciparum. Kind of assay: Antimalarial activity against Plasmodium falciparum. In kind it is functional, organism-based. The note with it: Plasmodium falciparum; read-out: IC50.
Assay [8] deals with Mycobacterium tuberculosis. Kind of assay: Antimycobacterial activity against Mycobacterium tuberculosis H37Rv measured after 7 days. It counts as functional. The note with it: 168 h, time 7 day.
Assay [9] concerns Rattus norvegicus. Kind of assay: Antiinflammatory activity in rat assessed as reduction in carrageenan induced edema at 10 mg/kg, po measured after 4 to 5 hrs relative to control. In kind it is functional. Details: scale not given: the % may be the effect or the level left. Conditions: time 4-5 hrs.
Assay [10] concerns Leishmania major. Kind of assay: Potency index, ratio of test compound IC50 to miltefosine IC50 for antileishmanial activity against promastigotes stage of leishmania major. In kind it is functional.
The subject of assay [11] is Leishmania major. Kind of assay: Potency index, ratio of test compound IC50 to amphotericin B IC50 for antileishmanial activity against promastigotes stage of leishmania major. In kind it is functional.
The subject of assay [12] is Leishmania major. Kind of assay: Antileishmanial activity against promastigotes stage of Leishmania major. In kind it is functional, organism-based.
Assay [13] addresses Epidermal growth factor receptor (Homo sapiens, UniProt P00533). Kind of assay: Inhibition of EGFR (unknown origin) […] insect sf9 cells incubated for 1 hrs in presence of ATP.
Assay [14] can be described thus: Inhibition of BRAF V600E mutant (unknown origin) incubated for 25 mins in presence of ATP by ELISA assay. The arrangement: species or system Homo sapiens.
A further assay has as its target Tubulin. The assay can be described thus: Inhibition of tubulin (unknown origin). It counts as protein-complex assay, Homo sapiens.
The test system of assay [15] is Staphylococcus aureus. The assay can be described thus: Antibacterial activity against Staphylococcus aureus assessed as bacterial growth inhibition incubated for 16 hrs. It counts as functional.
A further assay concerns Candida albicans. Kind of assay: Antifungal activity against Candida albicans assessed as fungal growth inhibition incubated for 16 hrs. It counts as functional.
Assay [16] deals with Plasmodium falciparum. Kind of assay: Antimalarial activity against Chloroquine resistant Plasmodium falciparum W2. It counts as functional, organism-based.
Assay [17] in a line: Inhibition of 5 alpha reductase (unknown origin).
The test system of assay [18] is Rattus norvegicus. The assay can be described thus: Antiinflammatory activity in rat assessed as reduction in edema at 17 mg/kg, ip measured after 5 hrs relative to control. It counts as functional. The arrangement: scale not given: the % may be the effect or the level left.

Values after ≈ are worked out from the molar mass of the structure shown.

Sequence of Epidermal growth factor receptor (P00533 whole entry): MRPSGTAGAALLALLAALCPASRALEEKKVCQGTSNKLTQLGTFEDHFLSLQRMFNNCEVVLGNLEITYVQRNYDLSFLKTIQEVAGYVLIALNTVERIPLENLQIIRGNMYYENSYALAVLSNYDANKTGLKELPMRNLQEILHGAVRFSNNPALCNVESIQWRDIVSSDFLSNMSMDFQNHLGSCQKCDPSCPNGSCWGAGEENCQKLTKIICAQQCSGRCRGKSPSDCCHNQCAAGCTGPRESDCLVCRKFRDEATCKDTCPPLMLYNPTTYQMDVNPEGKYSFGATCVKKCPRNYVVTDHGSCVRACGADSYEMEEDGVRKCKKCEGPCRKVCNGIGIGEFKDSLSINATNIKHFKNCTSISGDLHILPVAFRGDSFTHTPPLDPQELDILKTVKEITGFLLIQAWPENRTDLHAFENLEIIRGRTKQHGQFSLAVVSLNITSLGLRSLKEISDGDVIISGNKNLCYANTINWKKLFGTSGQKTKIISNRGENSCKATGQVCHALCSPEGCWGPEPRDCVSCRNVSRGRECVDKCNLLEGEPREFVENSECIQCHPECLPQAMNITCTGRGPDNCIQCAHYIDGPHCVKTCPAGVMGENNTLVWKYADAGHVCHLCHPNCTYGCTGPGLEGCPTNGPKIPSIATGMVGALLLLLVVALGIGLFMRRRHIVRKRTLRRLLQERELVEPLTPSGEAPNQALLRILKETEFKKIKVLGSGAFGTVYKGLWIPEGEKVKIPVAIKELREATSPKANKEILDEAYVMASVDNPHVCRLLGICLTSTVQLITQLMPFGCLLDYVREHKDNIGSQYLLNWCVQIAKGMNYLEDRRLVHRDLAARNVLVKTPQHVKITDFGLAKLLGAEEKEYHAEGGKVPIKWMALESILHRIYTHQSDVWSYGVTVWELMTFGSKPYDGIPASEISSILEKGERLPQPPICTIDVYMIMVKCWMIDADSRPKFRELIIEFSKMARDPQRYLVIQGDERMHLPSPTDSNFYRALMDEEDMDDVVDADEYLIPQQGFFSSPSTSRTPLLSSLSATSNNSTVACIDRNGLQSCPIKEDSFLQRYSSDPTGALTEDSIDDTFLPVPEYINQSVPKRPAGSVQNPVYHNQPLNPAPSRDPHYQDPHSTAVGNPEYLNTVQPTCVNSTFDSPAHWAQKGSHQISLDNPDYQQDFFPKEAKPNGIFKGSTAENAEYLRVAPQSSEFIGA

Turning to `O=C(CSc1nc2ccccc2n2cnnc12)Nc1ccc(S(=O)(=O)Nc2ccccn2)cc1`, the IC50 on DNA topoisomerase II was 970 nM.

In the case of `Cn1c(=O)c2nc[nH]c2n(C)c1=O` [THEOPHYLLINE], in the assay listed under Rattus norvegicus [1], the half-maximal effective concentration (EC50) turned out to be 425000 nM.

Regarding `FC(F)(F)c1cc(-c2nnc(Sc3cc(Cl)nc(Sc4ccccc4)n3)[nH]2)cc(C(F)(F)F)c1`, the MIC in the assay with Staphylococcus aureus [2] amounted to 0.43 µg/mL (≈ 0.805 µM); in the assay with Staphylococcus aureus [3], 1.8 µM (≈ 0.961 µg/mL).

As for `CCn1cc(-c2nc(/N=C/c3ccc(F)cc3)n[nH]2)c(=O)c2ccc(C)nc21`, at DNA gyrase, the IC50 was 9750 nM.

Consider `C(/C=C/c1ccc2c(c1)OCO2)=C\C1=NNC(SCc2ccccc2)N1C1CCCCC1` (centres undefined), for which the 50% inhibitory concentration (IC50) in the assay with Trypanosoma cruzi [4] was 3610 nM; with Trypanosoma cruzi [5], 3180 nM.

Consider `O=C(CSc1nc2ccccc2n2cnnc12)Nc1ccc(S(=O)(=O)Nc2nccs2)cc1`, for which the IC50 against DNA topoisomerase II came to 1100 nM.

For the molecule `C=C[C@H]1CN2CC[C@H]1C[C@H]2[C@H](O)c1ccnc2ccc(OC)cc12` [QUININE], the half-inhibitory concentration (IC50) worked out at 0.268 µg/mL (≈ 0.826 µM) in the assay on Plasmodium falciparum [6] and 286 nM in the assay with Plasmodium falciparum [7].

As for `CC[C@@H](CO)NCCN[C@@H](CC)CO` [ETHAMBUTOL], the minimum inhibitory concentration (MIC) in assay [8] is 6.25 µg/mL (≈ 30.6 µM).

As for `O=C(CSc1nnc(COc2ccccc2)n1-c1ccc(Cl)cc1)Nc1nc2ccccc2s1`, the Activity in the assay with Rattus norvegicus [9] came to 84.43%.

Regarding `NC1=NNC(c2ccccc2O)N1C(Cc1cc2ccccc2[nH]1)C(=O)O` (centres undefined), the “Ratio IC50” value with Leishmania major [10] and in the assay with Leishmania major [11] was 36 each time. This molecule registered an IC50 in the assay on Leishmania major [12] of 0.0312 µg/mL (≈ 0.0854 µM).

On to `CC1(c2ccccc2O)NN=C(N)N1C(Cc1cc2ccccc2[nH]1)C(=O)O` (centres undefined), for which the “Ratio IC50” value in the assay on Leishmania major [10] and with Leishmania major [11] was 36 each time. In addition, in the assay with Leishmania major [12], the IC50 is 0.0312 µg/mL (≈ 0.0822 µM).

Turning to `COc1ccccc1-n1c(S)nnc1-c1cc(S(N)(=O)=O)c(Cl)cc1N`, half-maximal inhibition with Plasmodium falciparum [6] (IC50) was put at 0.025 µg/mL (≈ 0.0607 µM).

With `COc1ccc(C(=O)n2nc(-c3cccnc3)nc2N)cc1`, the IC50 in [13] was found to be 3600 nM; in assay [14], 1900 nM; on Tubulin it was 957 nM.

Take `O=C(NCc1nnc(S)n1/N=C/c1ccc([N+](=O)[O-])cc1)c1ccccc1`: the MIC in the assay with Staphylococcus aureus [15] and with Candida albicans was 3.12 µg/mL (≈ 8.17 µM) throughout.

Molecule `Cc1cc(Nc2ccc(C(F)(F)F)cc2)n2nc(C(F)(F)F)nc2n1` showed an IC50 with Plasmodium falciparum [16] of 23 nM.

`O=C(Nc1ccccc1)C1=NN(c2ccccc2)/C(=C2/C=NN(Cc3cc4ccccc4oc3=O)C2=O)N1c1ccccc1` gave an ED50 in [17] of 150 nM.

On to `C=Cn1c(SCC(=O)Nc2ccc(/C(C)=N/O)cc2)nnc1-c1cc(-c2ccc(OC)cc2)nc2ccccc12`, for which the Activity in the assay on Rattus norvegicus [18] is given as 111%.

`O=c1c(-c2n[nH]c(=S)n2-c2ccccc2)c[nH]c2ncnn12` gave an EC50 in the assay filed under Rattus norvegicus [1] of 57100 nM.

As for `COc1ccc(C(=O)n2nc(-c3ccncc3)nc2N)cc1`, the half-maximal inhibitory concentration (IC50) in [13] came out at 4600 nM; in assay [14] it was 1800 nM; against Tubulin, 872 nM.

Regarding `COc1ccc(-c2cc(-c3nnc(SCC(=O)Nc4ccc(/C(C)=N/O)cc4)n3-c3ccccc3)c3cc(C)ccc3n2)cc1`, the Activity with Rattus norvegicus [18] is listed as 101%.

As for `CC(C)C(C(=O)O)N1C(N)=NNC1(C)c1ccccc1O` (centres undefined), the “Ratio IC50” value in the assay with Leishmania major [10] and in the assay on Leishmania major [11] was 36 throughout. Besides, inhibition with Leishmania major [12] was half-maximal at 0.0312 µg/mL (≈ 0.107 µM) (IC50).

With `COc1ccc(Nc2cc(C)nc3nc(C(F)(F)F)nn23)cc1`, the IC50 with Plasmodium falciparum [16] came to 23 nM.

As for `COc1ccc(-c2cc(-c3nnc(SCC(=O)Nc4ccc(/C(C)=N/O)cc4)n3-c3ccccc3)c3ccccc3n2)cc1`, in the assay on Rattus norvegicus [18], the Activity is given as 100%.

For `CC(C)SC1NN=C(/C=C/C=C/c2ccc3c(c2)OCO3)N1C1CCCCC1` (centres undefined), the IC50 was 3610 nM in the assay with Trypanosoma cruzi [4] and 3180 nM in the assay on Trypanosoma cruzi [5].
